Laboratory results: patent US20080182895A1 (priority 2006, published 2008)
Converted amounts (≈) assume the structure as drawn. “And” between values parts separate entries of the source, which are not always exact repeats. Equal entries are not always repeated. Where two headings read alike, the source gives them in different places.

How the values were obtained:
796R(0.1 μM) cells = assay: HCV replicon 3-day assay in variant cells; format: cell-based, Hepatitis C virus
Protocol: (§1) All resistant cells were cultured at the indicated drug concentrations in the presence of 0.5 mg/ml G418 for at least 3 weeks before analysis.
(§2) The levels of HCV RNA were determined using a quantitative TAQMAN® RT-PCR (PE Applied Biosystems, Foster City, Calif.).
(§3) Drug susceptibility of the replicon-containing cells to various compounds was evaluated as described previously (Howe et al. (2004) Antimicrobial Agents Chem. 48:4813-21). Briefly, cells were treated with increasing concentrations of compounds in medium containing 2% FCS and no G418 for three days at 37° C. and 5% CO2. After incubation, total RNA from the replicon-containing cells was isolated. The levels of HCV, glyceraldehyde 3-phosphate dehydrogenase (GAPDH) and ribosomal (rRNA) RNAs were quantified using TAQMAN® (PE Applied Biosystems, Foster City, Calif.) reverse transcriptase PCR reactions. The amounts of HCV, 18S ribosomal, and GAPDH RNAs in each sample were estimated by comparing the number of cycles during the exponential phase of the PCR amplification with those in the corresponding standard curves. HCV RNA standards used for the construction of the standard curve were prepared by extracting the total RNA from the Clone A cells. The RNA sample was sent to National Genetics Institute to quantify HCV RNA. Total RNA extracted from Clone A cells was quantified by O.D.260 measurement and used for construction of the standard curves of rRNA and GAPDH. The concentrations of the compounds that inhibit 50% of the HCV RNA level (EC50) were determined using the MDL® LIFE SCIENCE WORKBENCH® (LSW) Data Analysis software (MDL Information Systems, San Leandro, Calif.) in Microsoft EXCEL®. The amounts of HCV or GAPDH RNAs in the samples were expressed as HCV RNA (copies) or GAPDH (ng), respectively, per μg of total RNA using rRNA as a marker for total RNA measurement.

796R(1 μM) cells = assay: HCV replicon 3-day assay in variant cells; format: cell-based, Hepatitis C virus
Protocol: as §1, §2, §3

796R(10 μM) cells = assay: HCV replicon 3-day assay in variant cells; format: cell-based, Hepatitis C virus
Protocol: as §1, §2, §3

1b, BB7 replicon (WT) = assay: Replicon 3-day assay, wild type; format: cell-based, Hepatitis C virus; conditions: for EC50: Hepatitis C virus
Protocol: (§4) pBB7-replicon variant DNAs were linearized with Sca I, and in vitro transcription was performed using Ambion's […]® T7 High Yield Transcription kit (Austin, Tex.). Purified RNA transcripts were electroporated into Huh-7 cells in quadruplicates using a Biorad GENE PULSER® Electroporation System (Setting: 270V, 950 μF) (Hercules, Calif.). Stably transfected replicon variant cell lines were initially selected with 0.25 mg/ml G418 and stepped up to 1 mg/ml before further testing. One cell plate was stained with Crystal Violet to visualize the number of colonies and determine the colony formation efficiency. Individual cell clones from each plate were pooled and expanded for drug susceptibility testing.
(§5) The contribution of individual amino acid changes on drug resistance was assessed in replicon variants containing single amino acid mutations in NS5B in the background of the genotype 1b, BB7 adaptive replicon (Blight et al. (2000) Science 290:1972-74).
as §3

1b, BB7-M414I replicon = assay: Replicon variant 3-day assay; format: cell-based, Hepatitis C virus
Protocol: as §4, §5, §3

1b, BB7-M414V replicon = assay: Replicon variant 3-day assay; format: cell-based, Hepatitis C virus
Protocol: as §4, §5, §3

1b, BB7-S365A replicon = assay: Replicon variant 3-day assay; format: cell-based, Hepatitis C virus
Protocol: as §4, §5, §3

1b, BB7-S365T replicon = assay: Replicon variant 3-day assay; format: cell-based, Hepatitis C virus
Protocol: as §4, §5, §3

physchem = conditions: plasma or biological fluid

**Q.** For `CNC(=O)c1c(-c2ccc(F)cc2)oc2cc(N(CCO)S(C)(=O)=O)c(C3CC3)cc12` [HCV-796, 5-cyclopropyl-2-(4-fluorophenyl)-6-[(2-hydroxyethyl)(methylsulfonyl)amino]-N-methyl-1-benzofuran-3-carboxamide], which “Fold Reduced Susceptibility” value (796R(0.1 μM) cells; 796R(0.1 μM) cells vs Clone A control) is on record?
**A.** The value was 23 fold.

**Q.** What about the “Mean log10 Viral Reduction” value (796R(0.1 μM) cells; 796R(0.1 μM) cells, 56 μM compound, 3-day assay) of the same compound?
**A.** Its value is 1.4 log10 and 1.4 ± 0.3 (56 μM) log10.

**Q.** What about the EC50 (796R(0.1 μM) cells; Hepatitis C virus, 796R(0.1 μM) cells, HCV RNA, 72 hours) of the same compound?
**A.** Its EC50 is 0.3 ± 0.2 µM.

**Q.** What about the “Fold Reduced Susceptibility” value (796R(1 μM) cells; 796R(1 μM) cells vs Clone A control) of the same compound?
**A.** The value was 618 fold.

**Q.** What about the “Mean log10 Viral Reduction” value (796R(1 μM) cells; 796R(1 μM) cells, 56 μM compound, 3-day assay) of the same compound?
**A.** Its value is 0.7 log10 and 0.7 ± 0.2 (56 μM) log10.

**Q.** What about the EC50 (796R(1 μM) cells; Hepatitis C virus, 796R(1 μM) cells, HCV RNA, 72 hours) of the same compound?
**A.** Its EC50 is 8 ± 5.2 µM.

**Q.** What about the “Fold Reduced Susceptibility” value (796R(10 μM) cells; 796R(10 μM) cells vs Clone A control) of the same compound?
**A.** Its value is 6812 fold and >6812 fold.

**Q.** And the “Mean log10 Viral Reduction” value (796R(10 μM) cells; 796R(10 μM) cells, 56 μM compound, 3-day assay)?
**A.** Its value is 0.5 log10 and 0.5 ± 0.3 (56 μM) log10.

**Q.** What about the EC50 (796R(10 μM) cells; Hepatitis C virus, 796R(10 μM) cells, HCV RNA, 72 hours) of the same compound?
**A.** Its EC50 is > 88 µM.

**Q.** What about the “Viral Load Reduction” value (1b, BB7 replicon (WT); 1b, BB7, 2240 nM HCV-796, 3-day assay) of the same compound?
**A.** Its value is 1.9 ± 0.3 log.

**Q.** What about the EC50 (1b, BB7 replicon (WT)) of the same compound?
**A.** The EC50 was 8.6 nM.

**Q.** What about the EC50 (1b, BB7 replicon (WT); 72 h, 1b, BB7, 3-day assay, read-out: HCV RNA EC50 (nM) ± SD) of the same compound?
**A.** The EC50 was 3 ± 1 nM.

**Q.** What about the “Fold Resistance” value (1b, BB7-M414I replicon; BB7-M414I vs 1b, BB7) of the same compound?
**A.** Its value is 8 fold.

**Q.** What about the “Viral Load Reduction” value (1b, BB7-M414I replicon; BB7-M414I, 2240 nM HCV-796, 3-day assay) of the same compound?
**A.** Its value is 1.5 ± 0.2 log.

**Q.** And the EC50 (1b, BB7-M414I replicon; Hepatitis C virus, 72 h, BB7-M414I, 3-day assay, read-out: HCV RNA EC50 (nM) ± SD)?
**A.** The EC50 was 23 ± 3 nM.

**Q.** And the “Fold Resistance” value (1b, BB7-M414V replicon; BB7-M414V vs 1b, BB7)?
**A.** The value was 3 fold.

**Q.** And the “Viral Load Reduction” value (1b, BB7-M414V replicon; BB7-M414V, 2240 nM HCV-796, 3-day assay)?
**A.** Its value is 1.5 ± 0.1 log.

**Q.** And the EC50 (1b, BB7-M414V replicon; Hepatitis C virus, 72 h, BB7-M414V, 3-day assay, read-out: HCV RNA EC50 (nM) ± SD)?
**A.** The EC50 was 8 ± 1 nM.

**Q.** And the “Fold Resistance” value (1b, BB7-S365A replicon; BB7-S365A vs 1b, BB7)?
**A.** The value was 41 fold.

**Q.** What about the “Viral Load Reduction” value (1b, BB7-S365A replicon; BB7-S365A, 2240 nM HCV-796, 3-day assay) of the same compound?
**A.** Its value is 1.7 ± 0.1 log.

**Q.** And the EC50 (1b, BB7-S365A replicon; Hepatitis C virus, 72 h, BB7-S365A, 3-day assay, read-out: HCV RNA EC50 (nM) ± SD)?
**A.** Its EC50 is 124 ± 41 nM.

**Q.** What about the “Fold Resistance” value (1b, BB7-S365T replicon; BB7-S365T vs 1b, BB7) of the same compound?
**A.** The value was 212 fold.

**Q.** What about the “Viral Load Reduction” value (1b, BB7-S365T replicon; BB7-S365T, 2240 nM HCV-796, 3-day assay) of the same compound?
**A.** The value was 0.6 ± 0.1 log.

**Q.** And the EC50 (1b, BB7-S365T replicon; Hepatitis C virus, 72 h, BB7-S365T, 3-day assay, read-out: HCV RNA EC50 (nM) ± SD)?
**A.** Its EC50 is 643 ± 168 nM.

**Q.** What about the solubility (physchem) of the same compound?
**A.** The solubility was 56 µM (≈ 25 µg/mL).
